The results in this text go back to patent publication US20260217983A1, “SULFONIUM SALT PHOTOINITIATORS AND METHODS OF LED CURING A COMPOSITION WITH SAID SULFONIUM SALT PHOTOINITIATORS” (ARKEMA FRANCE, priority 2022, published 2026).

The nature of data set [1]: Real time FT-IR curing performance in UViCure S105 at 365 and 385 nm. The note with it: for Polymerization rate Rp/[M0]*100 / Final conversion: UViCure S105, 20 μm thickness, under air; for Final conversion: epoxide band; for cure speed compared with photoinitiators known from prior art such as Omnicat BL 550: LED lamp conditions, Example 2. How it is done: (§1) The curing performance of individual products prepared above was assessed using real time FT-IR measurement. The photoinitiators were dissolved in cycloaliphatic epoxy resin UViCure S105 (available from Sartomer) at the indicated wt % loading, applied onto the FT-IR measurement plate and irradiated with the indicated LED light source. The polymerization rate and final reactive group conversion were determined by monitoring the change of the relevant infrared band near 900 cm^−1 corresponding to an epoxide ring during irradiation. The molar extinction coefficients for the photoinitiator products (ε, expressed in M^−1 cm^−1) were determined in acetonitrile at 10^-3 M or 10^-5 M concentration.

The nature of data set [2]: UV Vis spectra measurement. The format is physicochemical. The following applies: order 5>1>2 (comp.) ~4 (comp.); 10 ppm in acetonitrile. From the text: UV-Vis spectrum of each sample was taken with a Shimadzu UV1800 spectrophotometer using a 1.0 cm path of cuvette quartz cell in accordance with ASTM E169-04, and scanning the spectrum over the wavelength range of 450 to 200 nm.

A short description of data set [3]: Molar extinction coefficient in acetonitrile. The format is physicochemical. The method, then: as §1
A short description of data set [4]: Real time FT-IR curing performance at 405 nm in UViCure S105/TMPTA (1:1). The note with it: LED @405 nm (110 mW/cm^2), 20 μm thickness, laminated. The method, then: The curing performance of individual products prepared above was assessed using real time FT-IR measurement. The photoinitiators were dissolved either in neat trimethylolpropane triacrylate (TMPTA; available as SR351 from Sartomer) or in a 1:1 (w/w) mixture of TMPTA and UViCure S105 as indicated, applied onto the FT-IR measurement plate, laminated to prevent oxygen inhibition, and irradiated with the indicated LED light source. For the epoxy component, the polymerization rate and final reactive group conversion were determined by monitoring the change of the relevant infrared band near 900 cm^−1 corresponding to an epoxide ring. For the acrylate component, the C═C stretch band near 1625 cm^−1 was used.

The nature of data set [5]: Thermal stability by DSC in TMPTA resin. It is filed as physicochemical. The following applies: DSC at 10° C./min, loading 1 wt %. How it is done: Formulations comprising the photoinitiators and neat UViCure S105E resin and/or TMPTA resin were prepared as described at example 2.
The nature of data set [6]: Thermal stability by DSC in UViCure S105E resin. It is filed as physicochemical. The following applies: DSC at 10° C./min, loading 1 wt % (Omnicat BL550 4 wt %; Speedcure 938/CPTX 1/0.5 wt %). On the technique in general: Differential scanning calorimetry records heat flow against a reference as temperature is scanned.
A short description of data set [7]: Working-curve measurement (Ec, Dp) on 405 nm DLP printers. The following applies: at lower concentration. How it is done: Working-curves were printed on the 405 nm~3 mW/cm^2 Flashforge Hunter DLP printer or on the 405 nm~12 mW/cm^2 B9 Core 550 DLP printer from B9Creation. Various energy dosages were irradiated in sections of the build area (without a build platform installed), resulting in individual squares or thin films being cured. The thickness of the individual thin films were measured with a low force digital caliper+comparator stand from Mitutoyo to determine the cure depths. A plot of the cure depths vs. the logarithm of energy dosages was used to determine the critical exposure (Ec, mJ/cm^2) and penetration depth (Dp, mils).

Where [8] appears, read: LED @365 nm (120 W/cm^2), PI loading 1 wt % (Omnicat BL 550 4 wt %; Speedcure 938/CPTX 1/0.5 wt %).

Regarding `CCc1cc(CC)c2sc3ccc([S+](c4ccc(C)cc4)c4ccc(C(=O)c5ccccc5)cc4)cc3c(=O)c2c1` (stereo not drawn) [Photoinitiator 4, (4-benzoylphenyl)(5,7-diethyl-9-oxo-9H-thioxanthen-2-yl)(4-methylphenyl)sulfonium Hexafluorophosphate], the “Polymerization rate Rp/[M0]*100” value in data set [1] (setting [8]) turned out to be 5.74 s⁻¹. This compound also displayed a Final conversion in data set [1] (LED @365 nm (120 W/cm^2)) of 25%. Besides, in data set [1] (LED @385 nm (160 W/cm^2)), the “Polymerization rate Rp/[M0]*100” value turned out to be 4.80 s⁻¹ and the Final conversion is reported as 25%. Also, the “cure speed compared with photoinitiators known from prior art such as Omnicat BL 550” value in data set [1] is on record as “higher cure speed”. Besides, in data set [2], the “UV absorption at 405 nm” value was “much higher than Omnicat 550 and SC 992S”. In addition, in data set [3], the “ε at 365 nm” value amounted to 13154 M⁻¹ cm⁻¹ and the “ε at 385 nm” value was found to be 13649 M⁻¹ cm⁻¹. Further, in data set [4], the “Acrylate Final conversion” value was 83%, the “Acrylate Polymerization rate Rp/[M0]*100” value was determined as 12.20 s⁻¹, the “Epoxy Final conversion” value was 45% and the “Epoxy Polymerization rate Rp/[M0]*100” value is 6.29 s⁻¹.

`Cc1ccc([S+](c2ccc(C(=O)c3ccccc3)cc2)c2ccc3sc4ccc(C(C)C)cc4c(=O)c3c2)cc1` (stereo not drawn) [Photoinitiator 2, (4-benzoylphenyl)(4-methylphenyl)[9-oxo-7-(propan-2-yl)-9H-thioxanthen-2-yl]sulfonium Hexafluorophosphate]: in data set [1] (setting [8]), the “Polymerization rate Rp/[M0]*100” value worked out at 4.11 s⁻¹. In addition, in data set [1] (LED @365 nm (120 W/cm^2)), the Final conversion is 41%. In data set [1] (LED @385 nm (160 W/cm^2)), the “Polymerization rate Rp/[M0]*100” value was determined as 5.96 s⁻¹ and the Final conversion was determined as 41%. The “cure speed compared with photoinitiators known from prior art such as Omnicat BL 550” value in data set [1] is on record as “higher cure speed”. In addition, the “UV absorption at 405 nm” value in data set [2] was “much higher than Omnicat 550 and SC 992S”. The “onset temperature of thermal polymerisation” value (shortened to “onset temperature”) in data set [5] came out at 170 °C. For the same compound, in data set [3], the “ε at 365 nm” value was 14201 M⁻¹ cm⁻¹ and the “ε at 385 nm” value is 14921 M⁻¹ cm⁻¹. Also, in data set [4], the “Acrylate Final conversion” value is reported as 81%, the “Acrylate Polymerization rate Rp/[M0]*100” value was found to be 11.56 s⁻¹, the “Epoxy Final conversion” value is reported as 45% and the “Epoxy Polymerization rate Rp/[M0]*100” value stood at 6.12 s⁻¹. For the same compound, the “onset temperature” value in data set [6] is about 240° ° C.

As for `CCCOc1ccc(Cl)c2c(=O)c3cc(-[s+]4c5ccccc5c(=O)c5c(Cl)ccc(OCCC)c54)ccc3sc12` (stereo not drawn) [Photoinitiator 5, 1-chloro-10-(8-chloro-9-oxo-5-propoxy-9H-thioxanthen-2-yl)-9-oxo-4-propoxy-9H-thioxanthen-10-ium Hexafluorophosphate], in data set [7], the “Dp and Ec compared with 4 (comp.)” value was “lower Op and higher Ec than 4 (comp.)”. Moreover, the “Polymerization rate Rp/[M0]*100” value in data set [1] (setting [8]) was 6.57 s⁻¹. This compound also yielded a Final conversion in data set [1] (LED @365 nm (120 W/cm^2)) of 36%. In addition, in data set [1] (LED @385 nm (160 W/cm^2)), the “Polymerization rate Rp/[M0]*100” value was 5.90 s⁻¹ and the Final conversion came to 39%. In addition, the “cure speed compared with photoinitiators known from prior art such as Omnicat BL 550” value in data set [1] is reported as “higher cure speed”. Also, in data set [2], the “UV absorption at 405 nm” value was “much higher than Omnicat 550 and SC 992S”. In addition, the “onset temperature” value in data set [5] worked out at 165 °C. Besides, in data set [3], the “ε at 365 nm” value amounted to 37326 M⁻¹ cm⁻¹ and the “ε at 385 nm” value amounted to 23429 M⁻¹ cm⁻¹. Also, in data set [4], the “Acrylate Final conversion” value amounted to 70%, the “Acrylate Polymerization rate Rp/[M0]*100” value is 6.03 s⁻¹, the “Epoxy Final conversion” value amounted to 44% and the “Epoxy Polymerization rate Rp/[M0]*100” value turned out to be 3.87 s⁻¹. In data set [6], the “onset temperature” value is reported as about 214° ° C.

Turning to `CC(C)c1ccc2sc3ccc(-[s+]4c5ccccc5c(=O)c5cc(C(C)C)ccc54)cc3c(=O)c2c1` (stereo not drawn) [Photoinitiator 1, 9-oxo-10-[9-oxo-7-(propan-2-yl)-9H-thioxanthen-2-yl]-2-(propan-2-yl)-9H-thioxanthen-10-ium hexafluorophosphate], the “Polymerization rate Rp/[M0]*100” value in data set [1] (setting [8]) amounted to 8.93 s⁻¹. In data set [1] (LED @365 nm (120 W/cm^2)), this compound returned a Final conversion of 35%. Further, in data set [1] (LED @385 nm (160 W/cm^2)), the “Polymerization rate Rp/[M0]*100” value stood at 8.89 s⁻¹ and the Final conversion came to 36%. Moreover, the “UV absorption at 405 nm” value in data set [2] was “much higher than Omnicat 550 and SC 992S”. The “onset temperature” value in data set [5] is 150 °C. Further, in data set [3], the “ε at 365 nm” value is 23380 M⁻¹ cm⁻¹ and the “ε at 385 nm” value was 23514 M⁻¹ cm⁻¹. Moreover, in data set [4], the “Acrylate Final conversion” value is listed as 83%, the “Acrylate Polymerization rate Rp/[M0]*100” value came to 10.57 s⁻¹, the “Epoxy Final conversion” value is reported as 47% and the “Epoxy Polymerization rate Rp/[M0]*100” value is 8.12 s⁻¹. In addition, the “onset temperature” value in data set [6] was about 220° ° C.
